Common to all, as to type: functional
Test [1] relates to Rattus norvegicus. The test can be described thus: Anti-hyperalgesic activity in carrageenan-induced hyperalgesia male Sprague-Dawley rat model assessed as paw withdrawal threshold at 10 mg/kg, po measured 15 mins after compound administration by paw pressure test. Conditions: 0.25 h.
The test system of test [2] is Rattus norvegicus. The test can be described thus: Anti-hyperalgesic activity in carrageenan-induced hyperalgesia male Sprague-Dawley rat model assessed as paw withdrawal threshold at 10 mg/kg, po measured 30 mins after compound administration by paw pressure test. Conditions: 0.5 h.
Test [3] has as its system Rattus norvegicus. As to the kind of experiment: Anti-hyperalgesic activity in carrageenan-induced hyperalgesia male Sprague-Dawley rat model assessed as paw withdrawal threshold at 10 mg/kg, po measured 45 mins after compound administration by paw pressure test. Conditions: 0.75 h.
The test system of test [4] is Rattus norvegicus. As to the kind of experiment: Anti-hyperalgesic activity in carrageenan-induced hyperalgesia male Sprague-Dawley rat model assessed as paw withdrawal threshold at 10 mg/kg, po measured 60 mins after compound administration by paw pressure test. Conditions: 1 h.
Test [5] deals with Rattus norvegicus. The test can be described thus: Anti-hyperalgesic activity in carrageenan-induced hyperalgesia male Sprague-Dawley rat model assessed as paw edema volume at 10 mg/kg, po measured 30 mins after compound administration by plethysmometer analysis. Conditions: 0.5 h.

Here are results for one compound from ChEMBL document CHEMBL5104161, “Novel analgesic/anti-inflammatory agents: 1,5-Diarylpyrrole nitrooxyethyl sulfides and related compounds as Cyclooxygenase-2 inhibitors containing a nitric oxide donor moiety endowed with vasorelaxant properties” (Eur J Med Chem, 2022).

Take `Cc1ccc(-c2cc(C(F)(F)F)nn2-c2ccc(S(N)(=O)=O)cc2)cc1` [CELECOXIB]: the Activity amounted to 48.5 g in the test with Rattus norvegicus [1]; 51.3 g with Rattus norvegicus [2]; 54 g in the test with Rattus norvegicus [3]; 46.7 g with Rattus norvegicus [4]; 1.56 mL with Rattus norvegicus [5].
